# Reference: patent US20090220598A1, “Stable Oral Pharmaceutical Composition Containing Thyroid Hormone Receptor Agonists” (priority 2006, published 2009)
# Experiments:
# [1] = Inhibition of nitration of compound 1A in the presence of nitrite by antioxidant inhibitor agents; type: physicochemical; settings: for Nitration (%) of 1A with inhibiting agent: 1A 50 μM, NaNO2 100 μM; for inhibition of the nitrite-mediated nitration of 1A: pH and nitrite concentration that give almost total conversion to the nitro reaction product
# Protocol: (§1) It is known that L-tyrosine can be converted to a nitro reaction product in which the NO2 group is substituted ortho to the ring hydroxyl group. The experimental procedure for determining the extent of nitration of L-tyrosine was used for determining the nitration of compound 1A and the inhibition thereof by selected antioxidants. The experimental procedure for L-tyrosine is known (1998, Chem. Res. Toxicol., 11, 1578). In brief, solutions of compound 1A (50 μM) were exposed to solutions of NaNO3 (2500 μM) and/or NaNO2 (various concentrations) at various pH values, at 37° C. and in the presence or absence of phosphate buffer. The nitration reaction leads to the formation of the 5′-nitro reaction product of compound 1A. This reaction product can be detected and quantified using HPLC, the reaction product having a reduced retention time (under the conditions used) compared to the parent compound. Antioxidant inhibitors were then added to NaNO2— and 1A-containing test solutions and the nitration tests repeated.
# On addition of selected antioxidant inhibiting agents to compound 1A in the presence of nitrite, the results of Table 2 were achieved. The amount of antioxidant used was generally around 10-20 times the amount of compound 1A.
# [2] = Clinical testing: nitrated reaction product after compound 1A as solution or enteric coated tablets; type: in vivo, human; settings: solution, single dose, clinically relevant dosages
# From the text: Clinically relevant dosages of compound 1A were given to human subjects in the form of a solution in a single dose.
# [3] = Nitration of compound 1A in the presence of nitrite and/or nitrate at various pH (HPLC-MS/MS); type: physicochemical; settings: 1A 50 μM
# Protocol: as §1
# Analysis was by HPLC-MS/MS, with the following conditions: […]
# [4] = In vivo nitration study in rats; settings: given with nitrate and nitrite solution (54 mg and 4 mg per rat)
compound,measurement,setting,value
"Cc1cc(C(C)(C)C)c(O)c(C(C)(C)C)c1 [BHT, butylated hydroxytoluene]",Nitration (%) of 1A with inhibiting agent,"[1]; pH 2 (HCl), 24 hr",0.02%
same,inhibition of the nitrite-mediated nitration of 1A,[1],essentially complete inhibition
O=C1O[C@H]([C@@H](O)CO)C([O-])=C1O.[Na+] [Sodium ascorbate],Nitration (%) of 1A with inhibiting agent,"[1]; pH 2 (HCl), 4 hr",0.00%
same,Nitration (%) of 1A with inhibiting agent,"[1]; pH 2 (phosphate), 4 hr",0.00%
same,Nitration (%) of 1A with inhibiting agent,"[1]; pH 6.4, 4 hr",0.00%
same,Nitration (%) of 1A with inhibiting agent,"[1]; pH 7.2, 4 hr",0.00%
same,inhibition of the nitrite-mediated nitration of 1A,[1],essentially complete inhibition
O=S([O-])O.[Na+] [Sodium bisulfite],Nitration (%) of 1A with inhibiting agent,"[1]; pH 2 (HCl), 0 hr",0.77%
same,Nitration (%) of 1A with inhibiting agent,"[1]; pH 2 (HCl), 2 hr",0.11%
same,Nitration (%) of 1A with inhibiting agent,"[1]; pH 2 (phosphate), 0 hr",0.11%
same,Nitration (%) of 1A with inhibiting agent,"[1]; pH 2 (phosphate), 2 hr",0.16%
same,Nitration (%) of 1A with inhibiting agent,"[1]; pH 2 (phosphate), 4 hr",0.17%
same,Nitration (%) of 1A with inhibiting agent,"[1]; pH 6.4 (NaAc), 2 hr",0%
same,Nitration (%) of 1A with inhibiting agent,"[1]; pH 6.4 (NaAc), 4 hr",0%
same,Nitration (%) of 1A with inhibiting agent,"[1]; pH 6.4 (phosphate), 2 hr",0%
same,Nitration (%) of 1A with inhibiting agent,"[1]; pH 6.4 (phosphate), 4 hr",0%
"CC(C)c1cc(Oc2c(Br)cc(NC(=O)CC(=O)O)cc2Br)ccc1O [compound 1A, 3-[[3,5-Dibromo-4-[4-hydroxy-3-(1-methylethyl)-phenoxy]-phenyl]-amino]-3-oxopropanoic acid]",nitrated reaction product in human subjects,[2],detected in a significant number of the subjects
same,Nitration (%),"[3]; NaNO2 100 μM, no NaNO3, pH 2 (HCl), 4 hr",98.6%
same,Nitration (%),"[3]; NaNO2 100 μM, no NaNO3, pH 2 (phosphate), 4 hr",4.27%
same,Nitration (%),"[3]; NaNO2 100 μM, no NaNO3, pH 6.4, 4 hr",0.013%
same,Nitration (%),"[3]; NaNO2 100 μM, no NaNO3, pH 7.2, 4 hr",0%
same,Nitration (%),"[3]; NaNO2 100 μM, no inhibiting agent, pH 6.4, 24 hr",0.02%
same,Nitration (%),"[3]; NaNO2 400 μM, no inhibiting agent, pH 6.4, 24 hr",0.12%
same,Nitration (%),"[3]; NaNO2 800 μM, no inhibiting agent, pH 6.4, 24 hr",0.21%
same,Nitration (%),"[3]; NaNO3 2500 μM, NaNO2 100 μM, pH 2 (HCl), 4 hr",8.4%
same,Nitration (%),"[3]; NaNO3 2500 μM, NaNO2 100 μM, pH 2 (phosphate), 4 hr",9.63%
same,Nitration (%),"[3]; NaNO3 2500 μM, NaNO2 100 μM, pH 6.4, 4 hr",0.017%
same,Nitration (%),"[3]; NaNO3 2500 μM, NaNO2 100 μM, pH 7.2, 4 hr",0%
same,Nitration (%),"[3]; NaNO3 2500 μM, no NaNO2, pH 2 (HCl), 4 hr",0%
same,Nitration (%),"[3]; NaNO3 2500 μM, no NaNO2, pH 2 (phosphate), 4 hr",0%
same,Nitration (%),"[3]; NaNO3 2500 μM, no NaNO2, pH 6.4, 4 hr",0%
same,Nitration (%),"[3]; NaNO3 2500 μM, no NaNO2, pH 7.2, 4 hr",0%
same,Nitration (%),"[3]; no NaNO3, no NaNO2, pH 2 (HCl), 24 hr",0%
same,Nitration (%),"[3]; no NaNO3, no NaNO2, pH 2 (phosphate), 24 hr",0%
same,Nitration (%),"[3]; no NaNO3, no NaNO2, pH 6.4, 24 hr",0%
same,Nitration (%),"[3]; no NaNO3, no NaNO2, pH 7.2, 24 hr",0%
same,administered dose nitrated,[4],around 6%
Catechin,Nitration (%) of 1A with inhibiting agent,"[1]; pH 2 (HCl), 4 hr",0.01%
same,Nitration (%) of 1A with inhibiting agent,"[1]; pH 2 (HCl), 24 hr",0.02%
same,Nitration (%) of 1A with inhibiting agent,"[1]; pH 2 (phosphate), 4 hr",0.01%
same,Nitration (%) of 1A with inhibiting agent,"[1]; pH 2 (phosphate), 24 hr",0%
same,Nitration (%) of 1A with inhibiting agent,"[1]; pH 6.4 (NaAc), 4 hr",0%
same,Nitration (%) of 1A with inhibiting agent,"[1]; pH 6.4 (NaAc), 24 hr",0%
same,Nitration (%) of 1A with inhibiting agent,"[1]; pH 6.4 (phosphate), 4 hr",0%
same,Nitration (%) of 1A with inhibiting agent,"[1]; pH 6.4 (phosphate), 24 hr",0%
